This passage reports IC50 results from patent US5707989A, “Pyrimido[5,4-D]pyrimidines, medicaments comprising these compounds, their use and processes for their preparation” (Dr. Karl Thomae GmbH, priority 1994, dated 1998).

What is called IC50 is the midpoint of a concentration-inhibition curve. Read a high IC50 as lower potency.

The target of one experiment is T1, human EGF-R (Homo sapiens, UniProt P00533).
T1 construct: expressed in transfected cells; host or cells: F/L-HERc cells: murine IL-3-dependent line FDC-P1 infected with recombinant retrovirus (LXSN vector, GP+E86 packaging line) carrying human EGF-R cDNA
T1 sequence (P00533 25-1210): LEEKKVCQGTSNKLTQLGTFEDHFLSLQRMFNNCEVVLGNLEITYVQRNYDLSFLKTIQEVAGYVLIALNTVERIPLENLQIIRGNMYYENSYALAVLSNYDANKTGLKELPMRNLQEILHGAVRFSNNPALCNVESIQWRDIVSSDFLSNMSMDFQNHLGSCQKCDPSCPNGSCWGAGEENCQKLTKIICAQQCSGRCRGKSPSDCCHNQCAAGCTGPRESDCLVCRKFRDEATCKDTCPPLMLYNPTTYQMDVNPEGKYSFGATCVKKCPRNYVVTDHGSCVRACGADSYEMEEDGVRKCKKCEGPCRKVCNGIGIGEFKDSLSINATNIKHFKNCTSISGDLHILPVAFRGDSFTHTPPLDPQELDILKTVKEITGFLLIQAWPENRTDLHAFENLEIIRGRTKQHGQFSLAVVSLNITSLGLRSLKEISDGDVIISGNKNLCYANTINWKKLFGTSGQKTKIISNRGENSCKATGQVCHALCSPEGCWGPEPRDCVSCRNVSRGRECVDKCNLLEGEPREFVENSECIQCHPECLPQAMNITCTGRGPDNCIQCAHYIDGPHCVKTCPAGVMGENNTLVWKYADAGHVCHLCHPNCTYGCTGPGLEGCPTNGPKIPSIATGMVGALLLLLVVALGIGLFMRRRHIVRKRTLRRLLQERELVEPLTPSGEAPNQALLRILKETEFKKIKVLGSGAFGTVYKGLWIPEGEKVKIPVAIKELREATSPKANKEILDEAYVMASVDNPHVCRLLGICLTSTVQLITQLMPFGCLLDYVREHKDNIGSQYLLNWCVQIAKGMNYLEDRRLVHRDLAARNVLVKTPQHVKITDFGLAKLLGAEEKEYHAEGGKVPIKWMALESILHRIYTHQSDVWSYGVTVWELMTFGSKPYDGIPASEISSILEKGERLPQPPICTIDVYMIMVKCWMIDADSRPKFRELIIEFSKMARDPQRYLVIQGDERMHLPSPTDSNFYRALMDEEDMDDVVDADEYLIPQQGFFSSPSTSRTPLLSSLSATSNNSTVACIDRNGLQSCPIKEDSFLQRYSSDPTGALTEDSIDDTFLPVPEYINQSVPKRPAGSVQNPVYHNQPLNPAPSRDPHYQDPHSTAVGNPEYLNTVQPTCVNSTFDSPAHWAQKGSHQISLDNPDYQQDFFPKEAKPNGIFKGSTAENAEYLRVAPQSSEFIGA
The experiment in a line: Inhibition of EGF-dependent proliferation of F/L-HERc cells. In kind it is cell-based. The note with it: human EGF 20 ng/ml, 48 hours. From the text: (§1) The inhibition of EGF-R-mediated signal transmission can be detected, for example, with cells which express human EGF-R, the survival and proliferation of which depend on stimulation by EGF or TGF-alpha. An interleukin-3 (IL-3)-dependent cell line of murine origin which was changed genetically such that it expresses functional human EGF-R was used here. The proliferation of these cells, called F/L-HERc, can therefore be stimulated either by murine IL-3 or by EGF (see von Ruden, T. et al. in EMBO J. 7, 2749-2756 (1988) and Pierce, J. H. et al. in Science 239, 628-631 (1988)).
(§2) The starting material used for the F/L-HERc cells was the cell line FDC-P1, the preparation of which has been described by Dexter, T. M. et al. in J. Exp. Med. 152, 1036-1047 (1980). Alternatively, however, other growth factor-dependent cells can also be used (see, for example, Pierce, J. H. et al. in Science 239, 628-631 (1988), Shibuya, H. et al. in Cell 70, 57-67 (1992) and Alexander, W. S. et al. in EMBO J. 10, 3683-3691 (1991)). Recombinant retroviruses were used for expression of the human EGF-R cDNA (see Ullrich, A. et al. in Nature 309, 418-425 (1984)), as described in yon Ruden, T. et al., EMBO J. 7, 2749-2756 (1988), with the difference that the retroviral vector LXSN (see Miller, A. D. et al. in BioTechniques 7, 980-990 (1989)) was used for expression of the EGF-R cDNA and the line GP+E86 (see Markowitz, D. et al. in J. Virol. 62, 1120-1124 (1988)) was used as the packing cell.
(§3) The test was carried out as follows:
(§4) F/L HERc cells were cultured at 37° C. and 5% CO2 in RPMI/1640 medium (BioWhittaker), supplemented with 10% foetal bovine serum (FCS, Boehringer Mannheim), 2 mM glutamine (BioWhittaker), standard antibiotics and 20 ng/ml of human EGF (Promega). For investigation of the inhibitory activity of the compounds according to the invention, 1.5×10^4 cells per well were cultured in triplicate in 96-well plates in the above medium (200 μl), proliferation of the cells being stimulated with either EGF (20 ng/ml) or murine IL-3. Culture stocks of the cell line X63/0 mIL-3 were used as the source for IL-3 (see Karasuyama, H. et al. in Eur. J. Immunol. 18, 97-104 (1988)). The compounds according to the invention were dissolved in 100% dimethyl sulphoxide (DMSO) and added to the cultures in various dilutions, the maximum DMSO concentration being 1%. The cultures were incubated at 37° C. for 48 hours.
(§5) To determine the inhibitory activity of the compounds according to the invention, the relative cell count was measured in OD units with Cell Titer 96™ Aqueous Non-Radioactive Cell Proliferation Assay (Promega). The relative cell count was calculated in per cent of the control (F/LHERc cells without inhibitor) and the active compound concentration which inhibits the proliferation of the cells to 50% (IC50) was deduced.

A further experiment deals with F/L-HERc cells. Nature of the experiment: Inhibition of IL-3-dependent proliferation of F/L-HERc cells. In kind it is cell-based. As to conditions: Mus musculus, murine IL-3, 48 hours.
From the text: as §1, §2, §3, §4, §5

For the compound `Cc1cccc(Nc2ncnc3cnc(Nc4ccc(N5CCCC5CO)cc4)nc23)c1` (stereo not shown) [1(193), 4-[(3-Methylphenyl)amino]-6-[4-(2-hydroxymethyl-1-pyrrolidinyl)phenylamino]-pyrimido[5,4-d]pyrimidine], the IC50 on human EGF-R amounted to 4 nM; with F/L-HERc cells, 10000 nM.

Turning to `Cc1cccc(Nc2ncnc3cnc(NCC4COCCOCCOCCOCCO4)nc23)c1` (stereo not shown) [1(197)], the IC50 was 900 nM at human EGF-R and 10000 nM in the experiment with F/L-HERc cells.

Take `O[C@H]1CC[C@H](Nc2ncc3ncnc(Nc4ccc(F)c(Cl)c4)c3n2)CC1` [1(204), 4-[(3-Chloro-4-fluoro-phenyl)amino]-6-[(trans-4-hydroxycyclohexyl)-amino]-pyrimido[5,4-d]pyrimidine]: the IC50 was 0.8 nM against human EGF-R and more than 10000 nM in the experiment with F/L-HERc cells.

As to `Cc1cccc(Nc2ncnc3cnc(NC(C)CO)nc23)c1` (stereo not shown) [1(58), 4-[(3-Methylphenyl)amino]-6-(1-hydroxy-2-propylamino)pyrimido[5,4-d]pyrimidine], the figures for the IC50 against human EGF-R and with F/L-HERc cells were 20 nM and more than 3000 nM, respectively.

Take `C#CCNc1ncc2ncnc(Nc3cccc(C)c3)c2n1` [1(23), 4-[(3-Methylphenyl)amino]-6-(propargylamino)-pyrimido[5,4-d]pyrimidine]: the IC50 on human EGF-R was 25 nM; with F/L-HERc cells, more than 3000 nM.

With `Fc1ccc(Nc2ncnc3cnc(NCCN4CCOCC4)nc23)cc1Cl` [1(129), 4-[(3-Chloro-4-fluoro-phenyl)amino]-6-[2-(morpholino)-ethylamino]-pyrimido[5,4-d]pyrimidine], the concentration for half-maximal inhibition (IC50) against human EGF-R was 8 nM; with F/L-HERc cells, more than 20000 nM.

`Cc1cccc(Nc2ncnc3cnc(N4CCN(c5ccccc5)CC4)nc23)c1` [1(3), 4-[(3-Methylphenyl)amino]-6-(1-phenyl-4-piperazinyl)-pyrimido[5,4-d]pyrimidine]: the IC50 was 2500 nM against human EGF-R and more than 10000 nM with F/L-HERc cells.

For the compound `Cc1cccc(Nc2ncnc3cnc(NC4CCN(C)CC4)nc23)c1` [1(62), 4-[(3-Methylphenyl)amino]-6-[(1-methyl-4-piperidinyl)amino]-pyrimido[5,4-d]pyrimidine], the values for the IC50 on human EGF-R and in the experiment on F/L-HERc cells were 40 nM and more than 1000 nM, respectively.

In the case of `Cc1cccc(Nc2ncnc3cnc(NC4CCC(=O)CC4)nc23)c1` [1(109), 4-[(3-Methylphenyl)amino]-6-[(4-oxo-cyclohexyl)amino]pyrimido[5,4-d]pyrimidine], the concentration for half-maximal inhibition (IC50) on human EGF-R was determined as 15 nM; with F/L-HERc cells, 10000 nM.

Take `O[C@H]1CC[C@H](Nc2ncc3ncnc(Nc4cccc(Cl)c4)c3n2)CC1` [1(110), 4-[(3-Chlorophenyl)amino]-6-[(trans-4-hydroxycyclohexyl)amino]pyrimido[5,4-d]pyrimidine]: the values for the IC50 on human EGF-R and with F/L-HERc cells were 2 nM and more than 10000 nM, respectively.

Regarding `FC(F)(F)Oc1cccc(Nc2ncnc3cnc(NC4CC4)nc23)c1` [3(18), 4-[(3-Trifluoromethoxyphenyl)amino]-6-(cyclopropylamino)-pyrimido[5,4-d]pyrimidine], the values for the IC50 on human EGF-R and in the experiment with F/L-HERc cells were 50 nM and more than 3000 nM, respectively.

Consider `N#Cc1cc(Nc2ncnc3cnc(N[C@H]4CC[C@H](O)CC4)nc23)ccc1N` [1(201), 4-[(4-Amino-3-cyano-phenyl)amino]-6-[(trans-4-hydroxycyclohexyl)-amino]-pyrimido[5,4-d]pyrimidine], for which the figures for the IC50 against human EGF-R and with F/L-HERc cells were 32 nM and more than 10000 nM, respectively.

Turning to `N#Cc1cccc(Nc2ncnc3cnc(NC4CC4)nc23)c1` [3(19), 4-[(3-Cyanophenyl)amino]-6-(cyclopropylamino)-pyrimido[5,4-d]pyrimidine], the results for the IC50 on human EGF-R and in the experiment with F/L-HERc cells were 15 nM and more than 3000 nM, respectively.

As to `Cc1cccc(Nc2ncnc3cnc(N[C@H]4CC[C@H](NC(=O)OC(C)(C)C)CC4)nc23)c1` [1(108), 4-[(3-Methylphenyl)amino]-6-[(trans-4-tert-butyloxycarbonylamino-cyclohexyl)amino]pyrimido[5,4-d]pyrimidine], the figures for the IC50 on human EGF-R and with F/L-HERc cells were 50 nM and more than 10000 nM, respectively.

With `COc1ncc2ncnc(Nc3cccc(C)c3)c2n1` [1(5), 4-[(3-Methylphenyl)amino]-6-methoxy-pyrimido[5,4-d]pyrimidine], the half-maximal inhibitory concentration (IC50) on human EGF-R was 1000 nM; in the experiment with F/L-HERc cells, more than 10000 nM.

Turning to `CC(CO)(CO)Nc1ncc2ncnc(Nc3ccc(Cl)c(F)c3)c2n1` [1(183), 4-[(4-Chloro-3-fluoro-phenyl)amino]-6-(1,3-dihydroxy-2-methyl-2-propylamino)-pyrimido[5,4-d]pyrimidine], the IC50 against human EGF-R is 5 nM; in the experiment on F/L-HERc cells it was more than 20000 nM.

With `Cc1cccc(Nc2ncnc3cnc(N)nc23)c1` [1(13), 4-[(3-Methylphenyl)amino]-6-amino-pyrimido[5,4-d]pyrimidine], the values for the IC50 against human EGF-R and in the experiment on F/L-HERc cells were 300 nM and more than 10000 nM, respectively.

On to `Cc1cccc(Nc2ncnc3cnc(N[C@H]4CC[C@H](C(=O)O)CC4)nc23)c1` [1(134), 4-[(3-Methylphenyl)amino]-6-[trans-4-carboxy-cyclohexylamino]-pyrimido[5,4-d]pyrimidine], for which the figures for the IC50 at human EGF-R and with F/L-HERc cells were 13 nM and more than 10000 nM, respectively.

In the case of `Fc1cc(F)cc(Nc2ncnc3cnc(NC4CC4)nc23)c1` [3(5), 4-[(3,5-Difluorophenyl)amino]-6-(cyclopropylamino)-pyrimido[5,4-d]pyrimidine], the IC50 is 50 nM at human EGF-R and more than 3000 nM in the experiment on F/L-HERc cells.

As to `Cc1cccc(Nc2ncnc3cnc(N[C@H]4CC[C@H](C(=O)N5CCOCC5)CC4)nc23)c1` [1(140), 4-[(3-Methylphenyl)amino]-6-[trans-4-(morpholinocarbonyl)cyclohexylamino]-pyrimido[5,4-d]pyrimidine], the figures for the IC50 against human EGF-R and in the experiment with F/L-HERc cells were 5 nM and more than 10000 nM, respectively.

Take `O=[N+]([O-])c1cccc(Nc2ncnc3cnc(NC4CC4)nc23)c1` [3(45), 4-[(3-Nitrophenyl)amino]-6-(cyclopropylamino)-pyrimido[5,4-d]pyrimidine]: the IC50 was 20 nM on human EGF-R and more than 1000 nM in the experiment on F/L-HERc cells.

In the case of `Cc1cccc(Nc2ncnc3cnc(NC4CCOCC4)nc23)c1` [1(170), 4-[(3-Methylphenyl)amino]-6-(4-tetrahydropyranylamino)-pyrimido[5,4-d]pyrimidine], the half-inhibitory concentration (IC50) is 15 nM against human EGF-R and more than 10000 nM with F/L-HERc cells.

Take `CCN(CC)c1ncc2ncnc(Nc3cccc(C)c3)c2n1` [1(10), 4-[(3-Methylphenyl)amino]-6-(diethylamino)-pyrimido[5,4-d]pyrimidine]: the IC50 against human EGF-R was 500 nM; in the experiment with F/L-HERc cells, more than 10000 nM.

With `Nc1c(Cl)cc(Nc2ncnc3cnc(N[C@H]4CC[C@H](O)CC4)nc23)cc1Cl` [1(207), 4-[(4-Amino-3,5-dichloro-phenyl)amino]-6-[(trans-4-hydroxycyclohexyl)-amino]-pyrimido[5,4-d]pyrimidine], the IC50 against human EGF-R was 2 nM; in the experiment on F/L-HERc cells, more than 10000 nM.

Regarding `Cc1cccc(Nc2ncnc3cnc(N4CCC(N)CC4)nc23)c1` [1(61), 4-[(3-Methylphenyl)amino]-6-(4-amino-1-piperidinyl)-pyrimido[5,4-d]pyrimidine], the results for the IC50 against human EGF-R and in the experiment on F/L-HERc cells were 32 nM and 9000 nM, respectively.

On to `Brc1cccc(Nc2ncnc3cncnc23)c1` [4(1), 4-[(3-Bromophenyl)amino]-pyrimido[5,4-d]pyrimidine], for which the IC50 against human EGF-R was 2000 nM; in the experiment on F/L-HERc cells it was more than 10000 nM.
